ChEMBL document CHEMBL3885861, “Open TG-GATES”

Species on record: Rattus norvegicus
Assay: Open TG-GATES - Regimen: Single
Format: toxicity, organism-based, Sprague-Dawley
Parameters: regimen Single, gender Male, age 6 weeks
Conditions: in vivo, po, 10 mg/kg, route gavage, dose level Middle; for APTT / Bas / Eos / Fbg / Hb / Ht / Lym / MCH / MCHC / MCV / Mono / Neu / PT / Plat / RBC / Ret / WBC: tissue Blood; for KIDNEY_L / KIDNEY_R / KIDNEY_TOTAL: tissue Kidney; for LIVER: tissue Liver; for A/G / ALP / ALT / AST / BUN / CRE / Ca / Cl / DBIL / GLC / IP / K / LDH / Na / PL / RALB / TBIL / TC / TG / TP / gamma-GTP: tissue Plasma

**Q.** What does the source list for `C[C@H]1C(=O)O[C@@H]2CCN3CC=C(COC(=O)[C@](C)(O)[C@]1(C)O)[C@H]23` [MONOCROTALINE]?
**A.** TERMINAL_BW (3 h): 213.5 g; APTT (3 h): 19.4 s; Bas (3 h): 0%; Eos (3 h): 1.4%; Fbg (3 h): 303.6 mg/dL; Hb (3 h): 12.9 g/dL; Ht (3 h): 37.7%; Lym (3 h): 77.2%; MCH (3 h): 21.5 pg; MCHC (3 h): 34.2%; MCV (3 h): 62.9 fL; Mono (3 h): 2.2%; Neu (3 h): 19%; PT (3 h): 16.5 s; Plat (3 h): 122.4 x10_4/uL; RBC (3 h): 600.4 x10_4/ul; Ret (3 h): 8.6%; WBC (3 h): 80.3 x10_2/uL; KIDNEY_L (3 h): 1 g; KIDNEY_R (3 h): 0.9 g; KIDNEY_TOTAL (3 h): 1.9 g; LIVER (3 h): 9.8 g; A/G (3 h): 1.3; ALP (3 h): 1633.4 IU/L; ALT (3 h): 44.4 IU/L; AST (3 h): 72.8 IU/L; BUN (3 h): 14.2 mg/dL; CRE (3 h): 0.1 mg/dL; Ca (3 h): 10.8 mg/dL; Cl (3 h): 105.6 meq/L; DBIL (3 h): 0.002 mg/dL; GLC (3 h): 171.8 mg/dL; IP (3 h): 8.9 mg/dL; K (3 h): 4.3 meq/L; LDH (3 h): 207.6 IU/L; Na (3 h): 142.6 meq/L; PL (3 h): 139 mg/dL; RALB (3 h): 3 g/dL; TBIL (3 h): 0.012 mg/dL; TC (3 h): 80 mg/dL; TG (3 h): 73.2 mg/dL; TP (3 h): 5.3 g/dL; gamma-GTP (3 h): 1 IU/L; TERMINAL_BW (6 h): 207.4 g; APTT (6 h): 21.7 s; Bas (6 h): 0%; Eos (6 h): 1.2%; Fbg (6 h): 303.2 mg/dL; Hb (6 h): 13.2 g/dL; Ht (6 h): 38.9%; Lym (6 h): 72.4%; MCH (6 h): 20.9 pg; MCHC (6 h): 34%; MCV (6 h): 61.6 fL; Mono (6 h): 3.2%; Neu (6 h): 22%; PT (6 h): 16.3 s; Plat (6 h): 121.5 x10_4/uL; RBC (6 h): 632 x10_4/ul; Ret (6 h): 8.4%; WBC (6 h): 93.8 x10_2/uL; KIDNEY_L (6 h): 1 g; KIDNEY_R (6 h): 1 g; KIDNEY_TOTAL (6 h): 1.9 g; LIVER (6 h): 9.1 g; A/G (6 h): 1.3; ALP (6 h): 1403 IU/L; ALT (6 h): 36.6 IU/L; AST (6 h): 70.8 IU/L; BUN (6 h): 11.2 mg/dL; CRE (6 h): 0.1 mg/dL; Ca (6 h): 10.5 mg/dL; Cl (6 h): 107 meq/L; DBIL (6 h): 0.004 mg/dL; GLC (6 h): 179.6 mg/dL; IP (6 h): 9.5 mg/dL; K (6 h): 4.3 meq/L; LDH (6 h): 222.6 IU/L; Na (6 h): 141.8 meq/L; PL (6 h): 129 mg/dL; RALB (6 h): 3 g/dL; TBIL (6 h): 0.016 mg/dL; TC (6 h): 72.2 mg/dL; TG (6 h): 53.2 mg/dL; TP (6 h): 5.3 g/dL; gamma-GTP (6 h): 1 IU/L; TERMINAL_BW (9 h): 203.7 g; APTT (9 h): 20 s; Bas (9 h): 0%; Eos (9 h): 1%; Fbg (9 h): 294.4 mg/dL; Hb (9 h): 13.1 g/dL; Ht (9 h): 38.6%; Lym (9 h): 75.4%; MCH (9 h): 21 pg; MCHC (9 h): 34.1%; MCV (9 h): 61.7 fL; Mono (9 h): 2.8%; Neu (9 h): 20.2%; PT (9 h): 16.5 s; Plat (9 h): 119.6 x10_4/uL; RBC (9 h): 626 x10_4/ul; Ret (9 h): 8.8%; WBC (9 h): 71.7 x10_2/uL; KIDNEY_L (9 h): 1 g; KIDNEY_R (9 h): 1 g; KIDNEY_TOTAL (9 h): 2 g; LIVER (9 h): 9 g; A/G (9 h): 1.3; ALP (9 h): 1365.4 IU/L; ALT (9 h): 33.6 IU/L; AST (9 h): 62.8 IU/L; BUN (9 h): 11.4 mg/dL; CRE (9 h): 0.1 mg/dL; Ca (9 h): 10.6 mg/dL; Cl (9 h): 106.2 meq/L; DBIL (9 h): 0.006 mg/dL; GLC (9 h): 180.2 mg/dL; IP (9 h): 9.7 mg/dL; K (9 h): 4.2 meq/L; LDH (9 h): 144 IU/L; Na (9 h): 142.2 meq/L; PL (9 h): 132.8 mg/dL; RALB (9 h): 3.1 g/dL; TBIL (9 h): 0.024 mg/dL; TC (9 h): 73.2 mg/dL; TG (9 h): 54.8 mg/dL; TP (9 h): 5.4 g/dL; gamma-GTP (9 h): 1.2 IU/L; TERMINAL_BW (24 h): 217 g; APTT (24 h): 21.3 s; Bas (24 h): 0%; Eos (24 h): 0.8%; Fbg (24 h): 309.8 mg/dL; Hb (24 h): 13.5 g/dL; Ht (24 h): 39.6%; Lym (24 h): 80.8%; MCH (24 h): 21.1 pg; MCHC (24 h): 34%; MCV (24 h): 61.9 fL; Mono (24 h): 2.8%; Neu (24 h): 15.2%; PT (24 h): 16.2 s; Plat (24 h): 117.4 x10_4/uL; RBC (24 h): 639.8 x10_4/ul; Ret (24 h): 7.1%; WBC (24 h): 75.2 x10_2/uL; KIDNEY_L (24 h): 1 g; KIDNEY_R (24 h): 1 g; KIDNEY_TOTAL (24 h): 2 g; LIVER (24 h): 10 g; A/G (24 h): 1.3; ALP (24 h): 1872.8 IU/L; ALT (24 h): 45.2 IU/L; AST (24 h): 75.4 IU/L; BUN (24 h): 17 mg/dL; CRE (24 h): 0.1 mg/dL; Ca (24 h): 10.4 mg/dL; Cl (24 h): 106.6 meq/L; DBIL (24 h): 0.002 mg/dL; GLC (24 h): 180.8 mg/dL; IP (24 h): 6.9 mg/dL; K (24 h): 4.3 meq/L; LDH (24 h): 235.8 IU/L; Na (24 h): 142.2 meq/L; PL (24 h): 153 mg/dL; RALB (24 h): 3.1 g/dL; TBIL (24 h): 0.006 mg/dL; TC (24 h): 79.4 mg/dL; TG (24 h): 114.6 mg/dL; TP (24 h): 5.5 g/dL; gamma-GTP (24 h): 0.8 IU/L
